Results published in US20240269139A1, “COMPOUNDS FOR TARGETED PROTEIN DEGRADATION OF KINASES” (DANA-FARBER CANCER INSTITUTE, INC., priority 2020, published 2024).
Read-outs that look alike come from different tables or passages of the source.

Tests used:
Format in all cases: cell-based
[1] = molecular target: protein kinases (human kinome) (Homo sapiens, UniProt Q9Y2K2); details: for logFC: SIK3 (Q9Y2K2)
[2] = molecular target: protein kinases (human kinome) (Homo sapiens, UniProt Q15418); details: experiment wp168
[3] = molecular target: T1, protein kinases (human kinome) (Homo sapiens, UniProt Q8TD19)
T1 sequence (Q8TD19 1-979): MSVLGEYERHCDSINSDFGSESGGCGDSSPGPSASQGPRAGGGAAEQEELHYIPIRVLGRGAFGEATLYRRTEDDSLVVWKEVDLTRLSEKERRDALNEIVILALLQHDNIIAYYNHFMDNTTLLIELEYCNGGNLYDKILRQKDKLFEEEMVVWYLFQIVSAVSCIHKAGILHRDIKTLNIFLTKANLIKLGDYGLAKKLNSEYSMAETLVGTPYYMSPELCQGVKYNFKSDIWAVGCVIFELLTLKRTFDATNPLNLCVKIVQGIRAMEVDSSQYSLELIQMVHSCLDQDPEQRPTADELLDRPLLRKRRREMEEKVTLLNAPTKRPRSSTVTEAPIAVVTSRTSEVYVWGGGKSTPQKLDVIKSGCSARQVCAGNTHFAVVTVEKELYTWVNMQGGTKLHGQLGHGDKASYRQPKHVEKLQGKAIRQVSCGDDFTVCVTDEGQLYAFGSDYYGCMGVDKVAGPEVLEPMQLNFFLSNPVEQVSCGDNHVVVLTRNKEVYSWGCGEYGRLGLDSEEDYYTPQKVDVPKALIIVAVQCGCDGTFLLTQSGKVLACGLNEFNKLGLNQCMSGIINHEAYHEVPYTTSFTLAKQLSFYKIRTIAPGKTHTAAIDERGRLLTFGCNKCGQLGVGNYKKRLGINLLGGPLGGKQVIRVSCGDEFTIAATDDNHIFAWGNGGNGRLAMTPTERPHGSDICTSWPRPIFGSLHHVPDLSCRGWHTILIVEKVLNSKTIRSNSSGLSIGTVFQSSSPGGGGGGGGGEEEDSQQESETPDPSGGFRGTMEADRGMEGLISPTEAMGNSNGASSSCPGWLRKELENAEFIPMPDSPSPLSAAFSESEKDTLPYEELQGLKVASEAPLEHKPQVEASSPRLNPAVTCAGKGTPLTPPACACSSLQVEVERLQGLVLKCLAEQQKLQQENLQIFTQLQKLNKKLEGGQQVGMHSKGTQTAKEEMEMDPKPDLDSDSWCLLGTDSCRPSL

[4] = molecular target: protein kinases (human kinome) (Homo sapiens, UniProt Q15208); details: for logFC: STK38 (Q15208)
protein kinases (human kinome) (Homo sapiens, UniProt Q15208), sequence (Q15208 whole entry): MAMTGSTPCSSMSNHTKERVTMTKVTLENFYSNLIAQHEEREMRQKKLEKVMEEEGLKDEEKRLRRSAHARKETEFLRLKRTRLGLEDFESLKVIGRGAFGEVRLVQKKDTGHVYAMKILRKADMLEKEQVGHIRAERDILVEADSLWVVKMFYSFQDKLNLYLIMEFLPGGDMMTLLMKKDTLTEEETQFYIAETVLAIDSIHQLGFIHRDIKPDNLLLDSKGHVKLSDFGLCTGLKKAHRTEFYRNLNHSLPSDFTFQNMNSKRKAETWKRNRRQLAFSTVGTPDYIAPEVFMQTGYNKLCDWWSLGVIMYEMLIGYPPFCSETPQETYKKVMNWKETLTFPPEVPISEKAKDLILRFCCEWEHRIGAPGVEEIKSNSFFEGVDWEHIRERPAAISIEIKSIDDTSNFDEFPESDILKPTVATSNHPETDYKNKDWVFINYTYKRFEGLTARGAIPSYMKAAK

protein kinases (human kinome) (Homo sapiens, UniProt Q9Y2K2), sequence (Q9Y2K2 whole entry): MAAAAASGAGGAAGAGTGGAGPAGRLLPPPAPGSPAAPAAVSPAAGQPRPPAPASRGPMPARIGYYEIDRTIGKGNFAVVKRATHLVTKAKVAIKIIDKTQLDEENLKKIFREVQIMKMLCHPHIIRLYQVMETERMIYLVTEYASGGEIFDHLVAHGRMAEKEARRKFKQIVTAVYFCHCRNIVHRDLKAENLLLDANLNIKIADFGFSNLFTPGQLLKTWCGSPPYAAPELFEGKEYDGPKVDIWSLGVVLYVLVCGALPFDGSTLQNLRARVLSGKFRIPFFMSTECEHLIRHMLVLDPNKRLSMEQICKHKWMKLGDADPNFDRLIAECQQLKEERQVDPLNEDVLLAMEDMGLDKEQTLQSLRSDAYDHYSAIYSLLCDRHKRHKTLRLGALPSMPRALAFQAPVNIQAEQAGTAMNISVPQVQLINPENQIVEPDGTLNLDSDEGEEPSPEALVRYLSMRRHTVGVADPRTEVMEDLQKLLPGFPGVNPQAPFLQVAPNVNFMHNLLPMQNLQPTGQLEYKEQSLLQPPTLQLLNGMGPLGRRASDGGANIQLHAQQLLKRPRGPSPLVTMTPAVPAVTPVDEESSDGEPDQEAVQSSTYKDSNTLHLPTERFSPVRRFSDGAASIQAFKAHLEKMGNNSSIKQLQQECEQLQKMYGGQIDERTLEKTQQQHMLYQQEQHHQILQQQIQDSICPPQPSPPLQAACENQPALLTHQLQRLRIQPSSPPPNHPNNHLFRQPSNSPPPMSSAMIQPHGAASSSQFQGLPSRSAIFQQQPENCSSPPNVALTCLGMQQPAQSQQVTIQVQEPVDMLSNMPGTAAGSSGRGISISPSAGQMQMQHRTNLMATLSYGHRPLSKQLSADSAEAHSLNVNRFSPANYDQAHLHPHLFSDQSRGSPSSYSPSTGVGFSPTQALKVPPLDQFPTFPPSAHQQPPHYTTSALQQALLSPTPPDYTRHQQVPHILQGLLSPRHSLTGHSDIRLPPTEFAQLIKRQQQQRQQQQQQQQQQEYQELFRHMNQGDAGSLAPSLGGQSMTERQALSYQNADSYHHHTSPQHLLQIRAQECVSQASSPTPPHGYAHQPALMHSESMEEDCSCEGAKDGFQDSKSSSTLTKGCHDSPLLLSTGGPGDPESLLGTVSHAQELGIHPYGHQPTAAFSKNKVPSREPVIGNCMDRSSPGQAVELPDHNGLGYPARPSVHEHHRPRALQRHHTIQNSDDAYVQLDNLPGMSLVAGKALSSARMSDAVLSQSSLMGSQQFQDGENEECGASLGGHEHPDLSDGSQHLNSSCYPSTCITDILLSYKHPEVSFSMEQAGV
protein kinases (human kinome) (Homo sapiens, UniProt Q15418), sequence (Q15418 whole entry): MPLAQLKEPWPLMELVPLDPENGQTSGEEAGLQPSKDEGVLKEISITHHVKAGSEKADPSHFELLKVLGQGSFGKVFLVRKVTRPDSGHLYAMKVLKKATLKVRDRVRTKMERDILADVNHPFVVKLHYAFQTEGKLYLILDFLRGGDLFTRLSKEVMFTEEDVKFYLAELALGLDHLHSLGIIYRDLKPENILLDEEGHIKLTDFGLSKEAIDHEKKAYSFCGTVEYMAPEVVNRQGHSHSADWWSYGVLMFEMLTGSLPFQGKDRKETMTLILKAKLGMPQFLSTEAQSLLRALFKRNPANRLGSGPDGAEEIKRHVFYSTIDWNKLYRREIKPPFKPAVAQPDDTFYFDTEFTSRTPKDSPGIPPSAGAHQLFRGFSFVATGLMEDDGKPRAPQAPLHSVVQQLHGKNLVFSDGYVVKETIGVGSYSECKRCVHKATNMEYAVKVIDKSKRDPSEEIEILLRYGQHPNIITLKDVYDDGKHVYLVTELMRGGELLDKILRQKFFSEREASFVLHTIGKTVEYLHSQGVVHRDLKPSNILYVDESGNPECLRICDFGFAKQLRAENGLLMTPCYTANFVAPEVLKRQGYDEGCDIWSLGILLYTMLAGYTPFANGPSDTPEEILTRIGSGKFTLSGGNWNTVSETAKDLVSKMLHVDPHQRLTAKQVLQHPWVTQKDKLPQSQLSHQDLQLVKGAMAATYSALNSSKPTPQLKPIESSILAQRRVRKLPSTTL

For `Cc1ncsc1-c1ccc([C@H](C)NC(=O)[C@@H]2C[C@@H](O)CN2C(=O)[C@@H](NC(=O)CCCCCN2CCc3cc(Nc4ncc(C5CC5)c(NCCCNC(=O)C5CCC5)n4)ccc3C2)C(C)(C)C)cc1` [BSJ.05.026], the “logFC of SIK3 (Q9Y2K2)” value ([1]; Experiment wp195) was −1.186 and the logFC ([1]; experiment wp195) was −1.186.

With `Cc1ccc(NC(=O)c2cccc(C(F)(F)F)c2)cc1N1Cc2cnc(Nc3ccc(N4CCN(CCCCC(=O)N[C@H](C(=O)N5C[C@H](O)C[C@H]5C(=O)N[C@@H](C)c5ccc(-c6scnc6C)cc5)C(C)(C)C)CC4)nc3)nc2N(C)C1=O` [DB1113] the “logFC of SIK3 (Q9Y2K2)” value ([1]; Experiment wp168) was −1.602, the logFC ([1]; experiment wp168) was −1.602 and the logFC ([2]; RPS6KA1 (Q15418-1), direction down) was −0.7297. For the same molecule, the “logFC RPS6KA1 (Q15418-1)” value [2] was −0.7297.

With `Cc1cnc(Nc2ccc(N3CCN(CCCCCCC(=O)N[C@H](C(=O)N4C[C@H](O)C[C@H]4C(=O)N[C@@H](C)c4ccc(-c5scnc5C)cc4)C(C)(C)C)CC3)cc2)nc1Nc1cccc(S(=O)(=O)NC(C)(C)C)c1` [JWG.123] the “logFC of SIK3 (Q9Y2K2)” value ([1]; Experiment wp195) was −1.322, the logFC ([1]; experiment wp195) was −1.322 and the logFC ([3]; NEK9 (Q8TD19), experiment wp195, direction down) was −1.079. The logFC ([3]; NEK9 Q8TD19, experiment wp195) was −1.079.

For `CC(C)S(=O)(=O)c1ccccc1Nc1nc(Nc2ccc(N3CCN(CCOCCOCCC(=O)NCCNc4cccc5c4CN(C4CCC(=O)NC4=O)C5=O)CC3)cc2)ncc1Cl` (stereo not drawn) [TL13.97], the logFC ([4]; experiment wp137) was −0.3912 and the “logFC of STK38 (Q15208)” value ([4]; experiment wp137) was −0.3912.

In the case of `NC(=O)c1c(F)cccc1Nc1nc(Nc2ccc(S(=O)(=O)NCCOCCOCCOCCOCCNc3cccc4c3C(=O)N(C3CCC(=O)NC3=O)C4=O)cc2)ncc1Br` (stereo not drawn) [TMX.02.138], the logFC ([4]; experiment wp146) is reported as −0.3476 and the “logFC of STK38 (Q15208)” value ([4]; experiment wp146) is reported as −0.3476.

In the case of `Cc1cc(Nc2ncc(Br)c(Nc3cccc(F)c3C(N)=O)n2)ccc1S(=O)(=O)NCCOCCOCCOCCOCCNc1cccc2c1C(=O)N(C1CCC(=O)NC1=O)C2=O` (stereo not drawn) [TMX.02.174], the logFC ([3]; NEK9 (Q8TD19), experiment wp146, direction down) is reported as −0.3626, the logFC ([3]; NEK9 Q8TD19, experiment wp146) is reported as −0.3626 and the logFC ([4]; experiment wp146) is reported as −0.4117. The “logFC of STK38 (Q15208)” value ([4]; experiment wp146) was −0.4117.
